According to US10000471B2, “Pyrazole P38 map kinase inhibitors” (Respivert Limited, priority 2010, dated 2018):

Key:
[1] = biological target: T1, p38 MAPKα isoform (MAPK14) (Homo sapiens, UniProt Q16539); assay: Enzyme inhibition assay (FRET, Z-LYTE), p38 MAPKα via MAPKAP-K2 activation; type: biochemical; details: read-out: Enzyme Inhibition IC50 p38α
T1 construct: purchased Invitrogen
Method in brief: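 Z-LYTE FRET format, in which protease cleaves only non-phosphorylated peptide, read after 1 h development. Compound was mixed with p38 MAPKα for 2 h at RT, and inhibition was gauged from MAPKAP-K2 activation/phosphorylation rather than directly. Percent inhibition against an uninhibited control was fitted to give IC50.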

p38 MAPKγ (MAPK12) = biological target: T2, p38 MAPKγ (MAPK12) (Homo sapiens, UniProt P53778); assay: Enzyme inhibition assay (FRET, Z-LYTE), p38 MAPKγ; type: biochemical; details: read-out: Enzyme Inhibition IC50 p38γ
T2 construct: purchased Invitrogen
T2 sequence (P53778 1-367): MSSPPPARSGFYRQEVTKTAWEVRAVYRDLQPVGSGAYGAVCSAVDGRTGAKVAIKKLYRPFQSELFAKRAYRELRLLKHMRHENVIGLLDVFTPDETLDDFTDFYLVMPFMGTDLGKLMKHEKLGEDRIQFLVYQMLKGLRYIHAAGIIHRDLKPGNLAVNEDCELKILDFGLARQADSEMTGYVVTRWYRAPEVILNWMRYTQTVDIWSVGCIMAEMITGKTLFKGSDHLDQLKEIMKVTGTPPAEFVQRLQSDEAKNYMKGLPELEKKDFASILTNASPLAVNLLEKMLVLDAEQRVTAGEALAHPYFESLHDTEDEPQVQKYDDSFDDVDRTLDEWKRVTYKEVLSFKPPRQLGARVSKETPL
Method in brief: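 Z-LYTE FRET readout: after 1 h kinase reaction (ATP 100 μM, peptide 2 μM) following 2 h RT enzyme–compound preincubation in HEPES, protease cleaves only unphosphorylated peptide. Percent inhibition from donor/acceptor ratio relative to control; IC50 fitted from the curve.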

[2] = test system: IL-8 release in d-U937 cells; assay: LPS-induced IL-8 release in d-U937 cells; type: cell-based, human; details: Homo sapiens, dU937
Method in brief: (§1)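 Sandwich ELISA of TNFα and IL-8 in supernatants after 4 hr 0.1 μg/mL LPS (E. coli O111:B4) challenge of U937 cells differentiated with PMA 100 ng/ml for 48–72 hr, compound added 2 hr beforehand. IL-8: IC50 from inhibition versus vehicle; TNFα: REC50 from inhibition as percentage of 10 μg/mL BIRB796 effect.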

[3] = test system: ICAM-1 induction in BEAS2B cells; assay: Poly I:C-induced ICAM-1 induction in BEAS2B cells; type: cell-based, human; details: Homo sapiens, BEAS-2B, read-out: PolyIC/ICAM1 IC50 BEAS2B
Method in brief: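 IC50 reflects inhibition of cell-surface ICAM-1 relative to vehicle, read by ELISA (OD450 against 655 nm) and divided by crystal violet OD595 for cell number. Readings were taken 18 hr after transfection of 1 μg/mL poly I:C into BEAS2B cells. Compound was added 2 hr before stimulation.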

[4] = test system: TNFα release in d-U937 cells; assay: LPS-induced TNFα release in d-U937 cells; type: cell-based, human; details: Homo sapiens, dU937, relative to 10 μg/mL BIRB796, read-out: LPS/TNFα REC50 d-U937
Method in brief: as §1

[5] = test system: Differentiated U937 cells; assay: Cell viability MTT assay; type: cell-based, human; details: negative = apparent increase in viability; for MTT Assay (Viability) 4 h d-U937, percentage loss of cell viability: 4 hr in 5% FCS; for MTT Assay (Viability) 24 h d-U937, percentage loss of cell viability: 24 h in 10% FCS
Method in brief: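 Differentiated U937 cells pre-incubated with compound either 4 hr in 5% FCS or 24 h in 10% FCS, then 1 hr MTT. Formazan dissolved in DMSO, absorbance at 550 nm. Percentage viability loss relative to 0.5% DMSO vehicle; apparent increases appear as negative percentages.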

[6] = test system: TNFα release in THP-1 cells; assay: LPS-induced TNFα release in THP-1 cells; type: cell-based, human; details: Homo sapiens
Method in brief: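 IC50 derived from concentration-response of TNFα inhibition relative to vehicle, with TNFα quantified by sandwich ELISA in supernatants. THP-1 cells were challenged 4 hr with LPS (E. coli, 3 μg/mL).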

T1 sequence (Q16539 whole entry, canonical isoform): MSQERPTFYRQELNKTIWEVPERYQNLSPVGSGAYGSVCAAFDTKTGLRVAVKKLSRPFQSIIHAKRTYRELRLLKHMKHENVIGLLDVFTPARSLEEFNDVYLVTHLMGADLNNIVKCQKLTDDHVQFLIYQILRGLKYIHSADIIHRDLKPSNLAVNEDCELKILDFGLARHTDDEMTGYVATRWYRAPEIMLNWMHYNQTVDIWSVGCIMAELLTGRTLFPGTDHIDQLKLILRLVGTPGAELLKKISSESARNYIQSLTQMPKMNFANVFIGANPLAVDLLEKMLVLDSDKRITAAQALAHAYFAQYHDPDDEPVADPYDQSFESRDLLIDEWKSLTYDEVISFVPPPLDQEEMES

| IC50 [1] | IC50 (p38 MAPKγ (MAPK12)) | IC50 [2] | EC50 [4] | IC50 [6] | Compound | IC50 [3] | MTT Assay (Viability) 4 h d-U937, percentage loss of cell viability [5] | MTT Assay (Viability) 24 h d-U937, percentage loss of cell viability [5] |
| --- | --- | --- | --- | --- | --- | --- | --- | --- |
| 48.3 nM | 30.1 nM | 7 nM | 2.7 nM | 3.2 nM | COCC(=O)Nc1cc(Oc2ccc(NC(=O)Nc3cc(C(C)(C)C)nn3-c3ccc(C)cc3)cc2C#N)ccn1 [Example 28, N-(4-(4-(3-(3-tert-butyl-1-p-tolyl-1H-pyrazol-5-yl)ureido)-2-cyanophenoxy)pyridin-2-yl)-2-methoxyacetamide] | 11.6 nM | −3.8% | 71.0% |
| 24.7 nM | 57.2 nM | 0.2 nM | 1.7 nM | 1.6 nM | CCNC(=O)Nc1cc(Oc2ccc(NC(=O)Nc3cc(C(C)(C)C)nn3-c3ccc(OC)cc3)c(Cl)c2Cl)ccn1 [Example 12, 1-(4-(4-(3-(3-tert-Butyl-1-(4-methoxyphenyl)-1H-pyrazol-5-yl)ureido)-2,3-dichlorophenoxy)pyridin-2-yl)-3-ethylurea] | 2.7 nM | 5.0% | 24.1% |
| 27.9 nM | 67.8 nM | 5.8 nM | 1.7 nM | 1.2 nM | COCCNC(=O)Nc1cc(Oc2ccc(NC(=O)Nc3cc(C(C)(C)C)nn3-c3ccc(OC)cc3)c(Cl)c2Cl)ccn1 [Example 67, 1-(4-(4-(3-(3-tert-butyl-1-(4-methoxyphenyl)-1H-pyrazol-5-yl)ureido)-2,3-dichlorophenoxy)pyridin-2-yl)-3-(2-methoxyethyl)urea] | 2 nM | −11.4% | 40.9% |
| 1.3 nM | 36.6 nM | 124 nM | 112 nM | 111 nM | COCC(=O)Nc1cc(Oc2ccc(NC(=O)Nc3cc(C(C)(C)C)nn3-c3ccc(C)cc3)c3[nH]ncc23)ccn1 [Example 7, N-(4-(7-(3-(3-tert-Butyl-1-p-tolyl-1H-pyrazol-5-yl)ureido)-1H-indazol-4-yloxy)pyridin-2-yl)-2-methoxyacetamide] | 150 nM | −2.0% | 64.5% |
| 12.8 nM | 27.2 nM | 5.4 nM | 1.1 nM | 0.3 nM | COc1ccc(-n2nc(C(C)(C)C)cc2NC(=O)Nc2ccc(Oc3ccnc(NC(=O)N4CCC(O)C4)c3)c(Cl)c2Cl)cc1 (centres unmarked) [Example 85, N-(4-(4-(3-(3-tert-butyl-1-(4-methoxyphenyl)-1H-pyrazol-5-yl)ureido)-2,3-dichlorophenoxy)pyridin-2-yl)-3-hydroxypyrrolidine-1-carboxamide] | 0.6 nM | −25.1% | 58.6% |
| 44.1 nM | 140 nM | 4.8 nM | 4.7 nM | 3.5 nM | CNC(=O)Nc1cc(COc2ccc(NC(=O)Nc3cc(C(C)(C)C)nn3-c3ccc(C)cc3)c(Cl)c2Cl)ccn1 [Example 102, 1-(4-((4-(3-(3-tert-butyl-1-p-tolyl-1H-pyrazol-5-yl)ureido)-2,3-dichlorophenoxy)methyl)pyridin-2-yl)-3-methylurea] | 25.4 nM | −14.1% | 8.8% |
| 47.3 nM | 167 nM | 3 nM | 2.3 nM | 14.9 nM | CNC(=O)Nc1cc(Oc2ccc(NC(=O)Nc3cc(C(C)(C)C)nn3-c3ccc(OC)cc3)c3ncccc23)ccn1 [Example 57, 1-(3-tert-butyl-1-(4-methoxyphenyl)-1H-pyrazol-5-yl)-3-(5-(2-(3-methylureido)pyridin-4-yloxy)quinolin-8-yl)urea] | 142 nM | −23.6% | −56.2% |
| 10.3 nM | 12.9 nM | 23.5 nM | 9.2 nM | 22.7 nM | CNC(=O)Nc1cc(Oc2ccc(NC(=O)Nc3cc(C(C)(C)C)nn3-c3ccc(C(=O)O)cc3)c(Cl)c2Cl)ccn1 [Example 60, 4-(3-tert-butyl-5-(3-(2,3-dichloro-4-(2-(3-methylureido)pyridin-4-yloxy)phenyl)ureido)-1H-pyrazol-1-yl)benzoic acid] | > 163 nM | −15.4% | −52.4% |
| 32.3 nM | 36.6 nM | 6.6 nM | 0.4 nM | 0.5 nM | COc1ccc(-n2nc(C(C)(C)C)cc2NC(=O)Nc2ccc(Oc3ccnc(NC(=O)N4CCCC4)c3)c(C#N)c2Cl)cc1 [Example 79, N-(4-(4-(3-(3-tert-butyl-1-(4-methoxyphenyl)-1H-pyrazol-5-yl)ureido)-3-chloro-2-cyanophenoxy)pyridin-2-yl)pyrrolidine-1-carboxamide] | 1.3 nM | −13.9% | 23.2% |
| 23.9 nM | 145 nM | 6.9 nM | 1 nM | 1.1 nM | CNC(=O)Nc1cc(Oc2ccc(NC(=O)Nc3cc(C(C)(C)C)nn3-c3ccc(CO)cc3)c(Cl)c2Cl)ncn1 [Example 99, 1-(3-tert-butyl-1-(4-hydroxymethylphenyl)-1H-pyrazol-5-yl)-3-(2,3-dichloro-4-(6-(3-methylureido)pyrimidin-4-yloxy)phenyl)urea] | 3.2 nM | 3.7% | 92.4% |
| 4.5 nM | 238 nM | 0.1 nM | 0.1 nM | 0.2 nM | COCC(=O)Nc1cc(Oc2ccc(NC(=O)Nc3cc(C(C)(C)C)nn3-c3ccc(C)cc3)c(Cl)c2C#N)ccn1 [Example 4, N-(4-(4-(3-(3-tert-Butyl-1-p-tolyl-1H-pyrazol-5-yl)ureido)-3-chloro-2-cyanophenoxy)pyridin-2-yl)-2-methoxyacetamide] | 1.1 nM | −24.1% | 64.5% |
| 34.2 nM | 174 nM | 6.8 nM | 1.2 nM | 0.7 nM | CNC(=O)Nc1cc(Oc2ccc(NC(=O)Nc3cc(C(C)(C)C)nn3-c3ccc(O)cc3)c(Cl)c2Cl)ccn1 [Example 51, 1-(3-tert-butyl-1-(4-hydroxyphenyl)-1H-pyrazol-5-yl)-3-(2,3-dichloro-4-(2-(3-methylureido)pyridin-4-yloxy)phenyl)urea] | 0.7 nM | −17.3% | 57.3% |
| 328 nM | 744 nM | 2.7 nM | 0.5 nM | 11.5 nM | Cc1ccc(-n2nc(C3(C)CCCCC3)cc2NC(=O)Nc2ccc(Oc3ccnc(NC(=O)N4CCCC4)c3)c(Cl)c2Cl)cc1 [Example 74, N-(4-(2,3-dichloro-4-(3-(3-(1-methylcyclohexyl)-1-p-tolyl-1H-pyrazol-5-yl)ureido)phenoxy)pyridin-2-yl)pyrrolidine-1-carboxamide] | 4.6 nM | 1.2% | 5.5% |
